IC50 data for ten molecules are collected here from US10472358B2, “1H-pyrrolo[2,3-c]pyridin-7(6H)-ones and pyrazolo[3,4-c]pyridin-7(6H)-ones as inhibitors of BET proteins” (Incyte Corporation, priority 2014, dated 2019).

The subject of this experiment is KMS.12.BM cells. Nature of the experiment: KMS.12.BM cell viability assay (Cell Titer-GLO, ATP quantitation). The format is cell-based. The following applies: KMS-12-BM, 72 h; human myeloma cells, 3 days, concentration required for 50% cell death. In a few lines:
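KMS.12.BM human myeloma cells (5000/well, RPMI with 10% FBS) were exposed to a compound concentration range for 3 days. Viable cells were measured by CellTiter-Glo ATP luminescence. IC50 is the concentration giving 50% cell death relative to untreated cells.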
For orientation: IC50 means the concentration that inhibits the measured activity by half. As to `CC(C)[C@H]1Nc2c(cc(S(C)(=O)=O)cc2-c2cn(C)c(=O)c3[nH]ccc23)NC1=O` [Example 61, (3R)-3-isopropyl-5-(6-methyl-7-oxo-6,7-dihydro-1H-pyrrolo[2,3-c]pyridin-4-yl)-7-(methylsulfonyl)-3,4-dihydroquinoxalin-2(1H)-one], the IC50 is at most 1 µM.

The molecule `CN1C(=O)C(C)(C)Oc2c(-c3cn(C)c(=O)c4[nH]ccc34)cc(S(C)(=O)=O)cc21` [Example 75, 2,2,4-trimethyl-8-(6-methyl-7-oxo-6,7-dihydro-1H-pyrrolo[2,3-c]pyridin-4-yl)-6-(methylsulfonyl)-2H-1,4-benzoxazin-3(4H)-one] yielded an IC50 of at most 1 µM.

For the molecule `CC(C)C1Oc2c(cc(S(C)(=O)=O)cc2-c2cn(C)c(=O)c3[nH]ccc23)NC1=O` (single isomer, unassigned) [Example 44A, 2-isopropyl-8-(6-methyl-7-oxo-6,7-dihydro-1H-pyrrolo[2,3-c]pyridin-4-yl)-6-(methylsulfonyl)-2H-1,4-benzoxazin-3(4H)-one], the IC50 was at most 1 µM.

With `CNC(=O)CN1C(=O)C(C(C)C)Oc2c(-c3cn(C)c(=O)c4[nH]ccc34)cc(OC)cc21` (stereo not shown) [Example 12, 2-[2-isopropyl-6-methoxy-8-(6-methyl-7-oxo-6,7-dihydro-1H-pyrrolo[2,3-c]pyridin-4-yl)-3-oxo-2,3-dihydro-4H-1,4-benzoxazin-4-yl]-N-methylacetamide], the IC50 is at most 1 µM.

`CC(C)NS(=O)(=O)c1cc2c(c(-c3cn(C)c(=O)c4[nH]ccc34)c1)OC(C)(C)C(=O)N2` [Example 74, N-isopropyl-2,2-dimethyl-8-(6-methyl-7-oxo-6,7-dihydro-1H-pyrrolo[2,3-c]pyridin-4-yl)-3-oxo-3,4-dihydro-2H-1,4-benzoxazine-6-sulfonamide] had an IC50 of at most 1 µM.

`COc1cc2c(c(-c3cn(C)c(=O)c4[nH]ncc34)c1)OC(C)(C)C(=O)N2` [Example 29, 6-methoxy-2,2-dimethyl-8-(6-methyl-7-oxo-6,7-dihydro-1H-pyrazolo[3,4-c]pyridin-4-yl)-2H-1,4-benzoxazin-3(4H)-one]: the IC50 was at most 1 µM.

`COc1cc2c(c(-c3cn(C)c(=O)c4[nH]ccc34)c1)OC(C(C)C)C(=O)N2` (single isomer, unassigned) [Example 9A, 2-isopropyl-6-methoxy-8-(6-methyl-7-oxo-6,7-dihydro-1H-pyrrolo[2,3-c]pyridin-4-yl)-2H-1,4-benzoxazin-3(4H)-one]: the IC50 was at most 1 µM.

`CC(O)c1cc(-c2cn(C)c(=O)c3[nH]ccc23)c2c(c1)N(C)C(=O)C(C)(C)O2` (stereo not shown) [Example 83, 6-(1-hydroxyethyl)-2,2,4-trimethyl-8-(6-methyl-7-oxo-6,7-dihydro-1H-pyrrolo[2,3-c]pyridin-4-yl)-2H-1,4-benzoxazin-3(4H)-one] registered an IC50 of at most 1 µM.

The molecule `CC(C)C1Oc2c(cc(CO)cc2-c2cn(C)c(=O)c3[nH]ccc23)NC1=O` (stereo not shown) [Example 36, 6-(hydroxymethyl)-2-isopropyl-8-(6-methyl-7-oxo-6,7-dihydro-1H-pyrrolo[2,3-c]pyridin-4-yl)-2H-1,4-benzoxazin-3(4H)-one] came in with an IC50 of at most 1 µM.

`Cn1cc(-c2cccc3c2OC(c2ccccc2)C(=O)N3)c2cc[nH]c2c1=O` (stereo not shown) [Example 1, 8-(6-methyl-7-oxo-6,7-dihydro-1H-pyrrolo[2,3-c]pyridin-4-yl)-2-phenyl-2H-1,4-benzoxazin-3(4H)-one] came in with an IC50 of at most 1 µM.
